This is an account of results in patent EP2957607B1, “IMAGE FORMING METHOD” (Konica Minolta, Inc., priority 2014, dated 2015).

The data set can be described thus: pKa value (acid dissociation constant) of the adsorption inhibitor. The format is physicochemical. The text has this:
The pKa value is also called the acid dissociation constant, which can be determined by a conventional method. The pKa value can be determined by, for example, the method described in Jikken Kagaku Koza 5, Netsuteki Sokutei oyobi Heiko (Experimental Chemistry Lecture 5, Thermal Measurements and Equilibrium), page 460, edited by The Chemical Society of Japan, Maruzen Co., Ltd.

Each structure is given as a SMILES string.

Regarding `O=C(O)CC(O)C(=O)O` (stereo not shown) [malic acid, Malic acid], the pKa is < 5.5.
